# Activity calls are given as the source filed them.
# Columns and labels:
# [1] = insulin promoter down-regulators in MIN6 cells, imaging, high-content screening, mouse beta cells (AID 1628); type: functional
# [2] = cytotoxicity in MIN6 insulinoma cells, dose response, cytotoxicity control, cell-based, mouse insulinoma (AID 2122); type: functional;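 also: confirmatory high-throughput counterscreen run to flag cytotoxic compounds; mouse MIN-6 beta cells carrying an insulin promoter eGFP reporter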
# [3] = molecular target: T1, Sentrin-specific protease 6 (Homo sapiens, UniProt Q9GZR1); type: functional;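 also: Luminescence-based dose-response confirmatory assay of SENP6 inhibition, following up an ultra-high-throughput screen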
# T1 sequence (Q9GZR1 whole entry): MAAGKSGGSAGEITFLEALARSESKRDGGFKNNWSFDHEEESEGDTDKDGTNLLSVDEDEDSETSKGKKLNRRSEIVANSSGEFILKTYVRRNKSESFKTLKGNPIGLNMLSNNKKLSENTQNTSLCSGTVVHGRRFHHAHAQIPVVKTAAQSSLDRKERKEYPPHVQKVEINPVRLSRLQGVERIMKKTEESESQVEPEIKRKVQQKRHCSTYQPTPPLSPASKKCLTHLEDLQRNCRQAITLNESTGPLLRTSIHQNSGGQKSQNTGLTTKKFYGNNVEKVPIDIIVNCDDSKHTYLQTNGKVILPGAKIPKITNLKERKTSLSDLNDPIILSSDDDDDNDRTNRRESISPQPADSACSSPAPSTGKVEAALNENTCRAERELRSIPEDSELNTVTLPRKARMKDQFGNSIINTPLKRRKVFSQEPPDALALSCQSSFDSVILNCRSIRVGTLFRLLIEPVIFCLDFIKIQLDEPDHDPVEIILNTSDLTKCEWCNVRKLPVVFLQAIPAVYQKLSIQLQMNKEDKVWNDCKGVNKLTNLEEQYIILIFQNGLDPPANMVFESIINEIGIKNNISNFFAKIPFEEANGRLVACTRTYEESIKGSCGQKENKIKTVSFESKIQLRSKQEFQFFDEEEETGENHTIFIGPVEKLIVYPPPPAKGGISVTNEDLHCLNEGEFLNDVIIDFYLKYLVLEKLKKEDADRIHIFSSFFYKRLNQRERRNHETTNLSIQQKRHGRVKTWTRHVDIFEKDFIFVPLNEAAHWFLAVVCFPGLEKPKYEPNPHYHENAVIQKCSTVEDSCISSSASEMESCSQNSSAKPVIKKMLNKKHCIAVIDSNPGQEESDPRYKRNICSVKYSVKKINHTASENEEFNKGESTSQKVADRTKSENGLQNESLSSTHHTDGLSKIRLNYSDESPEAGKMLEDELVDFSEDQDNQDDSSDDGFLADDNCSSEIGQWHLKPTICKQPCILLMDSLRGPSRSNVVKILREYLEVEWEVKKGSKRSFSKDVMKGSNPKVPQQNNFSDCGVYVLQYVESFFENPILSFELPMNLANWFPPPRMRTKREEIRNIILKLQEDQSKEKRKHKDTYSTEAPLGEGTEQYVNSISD
# [4] = molecular target: T2, Sentrin-specific protease 8 (Homo sapiens, UniProt Q96LD8); type: functional;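 also: luminescence read-out of SENP8 inhibition, dose-response confirmation following an ultra-high-throughput screen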
# T2 sequence (Q96LD8 whole entry): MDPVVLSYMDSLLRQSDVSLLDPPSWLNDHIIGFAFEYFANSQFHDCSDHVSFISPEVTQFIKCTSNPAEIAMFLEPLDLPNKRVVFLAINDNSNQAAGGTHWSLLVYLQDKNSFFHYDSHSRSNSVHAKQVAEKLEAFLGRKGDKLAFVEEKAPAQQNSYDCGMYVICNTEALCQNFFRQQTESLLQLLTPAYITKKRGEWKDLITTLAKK
# [5] = growth suppression of PTEN-null colon cells, dose response, cell-based, HCT116 PTEN knockout (AID 1047); type: functional;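 also: HCT116 colon tumor cells with PTEN knocked out; cells exposed to compound for 60 hours before readout; potency for loss of cell viability measured by luminescence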
# [6] = THP-1 cell cytotoxicity, dose response, cytotoxicity control for non-replicating M. tuberculosis project (AID 489025); type: functional
# [7] = Vero E6 cell cytotoxicity, dose response, cytotoxicity control for non-replicating M. tuberculosis project, secondary assay (AID 492998); type: functional, VeroE6; settings: Vero C1008
# [8] = growth suppression of beta-catenin-knockout colon cells, dose response, cell-based, HCT116, human colon tumor (AID 1045); type: functional;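 also: HCT116 colon tumor cells with beta catenin knocked out; cells exposed to compound for 60 hours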
# [9] = molecular target: T3, Caspase-3 (Homo sapiens, UniProt P42574); type: functional;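 also: Dose-response selectivity test against caspase-3 for candidate inhibitors of sentrin-specific proteases (SENPs)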
# T3 sequence (P42574 whole entry): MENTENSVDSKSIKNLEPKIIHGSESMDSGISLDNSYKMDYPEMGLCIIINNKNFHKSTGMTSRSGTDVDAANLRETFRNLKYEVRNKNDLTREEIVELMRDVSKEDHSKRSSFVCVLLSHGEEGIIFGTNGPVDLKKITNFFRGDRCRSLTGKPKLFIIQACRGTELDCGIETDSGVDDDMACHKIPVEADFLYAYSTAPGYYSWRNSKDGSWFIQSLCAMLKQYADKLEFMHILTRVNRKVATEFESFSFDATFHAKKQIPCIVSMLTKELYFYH
# [10] = system: INS1; experiment: beta cell apoptosis inhibitors, cytokine rescue, dose response, luminescence, retest (AID 449756); type: functional, cell-based; settings: Rattus norvegicus;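 also: cell death triggered by IL-1 beta plus TNF-alpha plus IFN-gamma mixture; protective hits raise ATP signal compared with cytokine alone wells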
# [11] = molecular target: T4, Sentrin-specific protease 7 (Homo sapiens, UniProt Q9BQF6); type: functional;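 also: Luminescence-based dose-response confirmation of ultra-high-throughput screening hits, measuring inhibition of SENP7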
# T4 sequence (Q9BQF6 whole entry): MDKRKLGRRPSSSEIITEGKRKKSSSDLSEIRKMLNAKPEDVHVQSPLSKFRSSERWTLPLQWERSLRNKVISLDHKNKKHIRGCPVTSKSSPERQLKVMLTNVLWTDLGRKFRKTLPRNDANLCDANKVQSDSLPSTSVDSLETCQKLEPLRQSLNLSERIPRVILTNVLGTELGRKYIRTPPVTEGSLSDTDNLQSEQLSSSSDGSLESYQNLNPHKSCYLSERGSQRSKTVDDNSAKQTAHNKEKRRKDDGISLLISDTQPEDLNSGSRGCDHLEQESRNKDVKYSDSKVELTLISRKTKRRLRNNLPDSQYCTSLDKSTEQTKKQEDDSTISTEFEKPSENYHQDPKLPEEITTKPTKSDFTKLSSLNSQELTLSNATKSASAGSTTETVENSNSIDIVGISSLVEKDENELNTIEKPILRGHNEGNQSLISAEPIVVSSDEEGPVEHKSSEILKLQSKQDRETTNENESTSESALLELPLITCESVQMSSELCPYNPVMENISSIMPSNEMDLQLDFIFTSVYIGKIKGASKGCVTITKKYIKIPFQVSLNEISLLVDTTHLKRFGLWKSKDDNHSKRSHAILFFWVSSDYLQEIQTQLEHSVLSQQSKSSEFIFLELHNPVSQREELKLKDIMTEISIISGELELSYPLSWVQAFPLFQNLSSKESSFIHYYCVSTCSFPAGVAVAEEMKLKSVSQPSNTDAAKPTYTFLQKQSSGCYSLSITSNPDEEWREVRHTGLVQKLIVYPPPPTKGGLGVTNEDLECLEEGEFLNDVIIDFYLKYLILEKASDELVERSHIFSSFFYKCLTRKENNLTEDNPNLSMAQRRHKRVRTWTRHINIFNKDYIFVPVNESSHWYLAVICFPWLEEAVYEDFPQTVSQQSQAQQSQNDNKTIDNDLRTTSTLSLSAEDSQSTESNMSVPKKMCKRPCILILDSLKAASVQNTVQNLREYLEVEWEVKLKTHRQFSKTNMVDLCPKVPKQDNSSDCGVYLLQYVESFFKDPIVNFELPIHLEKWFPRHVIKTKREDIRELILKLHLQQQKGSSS
# [12] = Intein inhibitors as potential Tuberculosis drugs, a cytotoxicity screen. [Related pubchem assays (depositor defined):AID2221, AID2223, AID434968, AID435010, AID449749, AID449750, AID489010]; type: functional
# [13] = molecular target: T5, Fatty acid synthase (Homo sapiens, UniProt P49327); experiment: FAS thioesterase domain inhibitors, dose response, biochemical, kinetic fluorescence intensity (AID 624326); type: functional;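 also: rate of fluorescence rise from hydrolysis of a fluorogenic O-methyl fluorescein ester substrate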
# T5 sequence (P49327 whole entry, the tested form may be a part): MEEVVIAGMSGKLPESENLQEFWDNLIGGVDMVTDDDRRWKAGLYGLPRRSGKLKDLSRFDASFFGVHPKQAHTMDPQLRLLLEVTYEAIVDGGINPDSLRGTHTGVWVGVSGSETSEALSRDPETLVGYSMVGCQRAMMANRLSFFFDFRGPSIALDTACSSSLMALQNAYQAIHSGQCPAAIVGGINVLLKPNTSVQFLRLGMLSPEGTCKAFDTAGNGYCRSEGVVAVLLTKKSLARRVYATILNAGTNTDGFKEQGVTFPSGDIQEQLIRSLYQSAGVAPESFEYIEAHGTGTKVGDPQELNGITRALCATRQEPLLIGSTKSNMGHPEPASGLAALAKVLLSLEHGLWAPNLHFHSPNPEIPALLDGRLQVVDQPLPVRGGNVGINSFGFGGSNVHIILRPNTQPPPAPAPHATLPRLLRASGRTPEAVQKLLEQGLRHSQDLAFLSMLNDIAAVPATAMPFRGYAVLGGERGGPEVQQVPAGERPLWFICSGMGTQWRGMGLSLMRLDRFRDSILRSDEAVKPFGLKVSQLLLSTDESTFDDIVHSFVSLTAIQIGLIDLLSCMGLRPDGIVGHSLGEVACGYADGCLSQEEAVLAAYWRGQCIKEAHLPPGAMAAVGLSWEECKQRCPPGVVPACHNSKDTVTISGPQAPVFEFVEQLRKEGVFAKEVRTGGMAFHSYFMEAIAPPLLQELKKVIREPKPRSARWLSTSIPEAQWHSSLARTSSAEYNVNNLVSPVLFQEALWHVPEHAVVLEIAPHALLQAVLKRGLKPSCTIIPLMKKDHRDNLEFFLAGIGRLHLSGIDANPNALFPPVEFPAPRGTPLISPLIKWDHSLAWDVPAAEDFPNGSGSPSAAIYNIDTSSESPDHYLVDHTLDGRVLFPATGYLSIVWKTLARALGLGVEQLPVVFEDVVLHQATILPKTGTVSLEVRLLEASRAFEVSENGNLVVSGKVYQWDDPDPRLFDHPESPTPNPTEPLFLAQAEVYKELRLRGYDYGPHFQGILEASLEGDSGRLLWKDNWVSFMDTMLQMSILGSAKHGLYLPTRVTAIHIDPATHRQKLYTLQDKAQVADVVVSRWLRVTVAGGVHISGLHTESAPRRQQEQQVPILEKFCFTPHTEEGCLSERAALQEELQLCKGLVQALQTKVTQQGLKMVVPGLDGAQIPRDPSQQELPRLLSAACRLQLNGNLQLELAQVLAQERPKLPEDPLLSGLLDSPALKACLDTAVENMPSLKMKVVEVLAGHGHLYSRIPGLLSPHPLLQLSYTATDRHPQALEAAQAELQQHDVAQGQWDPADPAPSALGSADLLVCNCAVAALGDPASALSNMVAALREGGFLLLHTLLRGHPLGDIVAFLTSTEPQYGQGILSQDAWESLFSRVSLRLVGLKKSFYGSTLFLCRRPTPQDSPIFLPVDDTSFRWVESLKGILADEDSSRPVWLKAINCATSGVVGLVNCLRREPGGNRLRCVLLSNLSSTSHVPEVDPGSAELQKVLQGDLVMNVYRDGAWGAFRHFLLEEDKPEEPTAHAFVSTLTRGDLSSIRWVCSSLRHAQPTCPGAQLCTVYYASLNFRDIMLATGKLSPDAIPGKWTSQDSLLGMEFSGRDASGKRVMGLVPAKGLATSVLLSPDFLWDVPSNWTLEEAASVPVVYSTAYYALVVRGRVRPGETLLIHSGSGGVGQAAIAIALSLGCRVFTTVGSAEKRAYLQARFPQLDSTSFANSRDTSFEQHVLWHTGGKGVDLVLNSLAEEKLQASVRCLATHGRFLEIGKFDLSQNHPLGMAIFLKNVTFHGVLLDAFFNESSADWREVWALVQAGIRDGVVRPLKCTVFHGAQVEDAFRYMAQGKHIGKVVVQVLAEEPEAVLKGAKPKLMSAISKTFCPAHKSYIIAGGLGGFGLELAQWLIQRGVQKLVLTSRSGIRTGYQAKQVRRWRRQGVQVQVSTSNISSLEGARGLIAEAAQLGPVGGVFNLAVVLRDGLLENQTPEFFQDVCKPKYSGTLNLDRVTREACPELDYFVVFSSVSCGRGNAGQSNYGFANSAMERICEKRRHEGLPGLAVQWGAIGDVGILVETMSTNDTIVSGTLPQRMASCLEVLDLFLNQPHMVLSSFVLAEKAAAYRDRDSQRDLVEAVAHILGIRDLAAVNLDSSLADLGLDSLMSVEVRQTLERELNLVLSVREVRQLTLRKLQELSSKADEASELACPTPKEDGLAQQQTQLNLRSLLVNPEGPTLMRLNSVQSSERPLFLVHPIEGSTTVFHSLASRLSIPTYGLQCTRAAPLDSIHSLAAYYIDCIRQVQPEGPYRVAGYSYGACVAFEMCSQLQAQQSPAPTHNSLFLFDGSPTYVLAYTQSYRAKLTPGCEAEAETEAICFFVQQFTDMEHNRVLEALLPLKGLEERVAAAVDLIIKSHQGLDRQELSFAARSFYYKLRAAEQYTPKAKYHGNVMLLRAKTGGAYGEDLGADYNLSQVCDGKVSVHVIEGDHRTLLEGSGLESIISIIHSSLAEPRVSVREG
# [14] = molecular target: T6, Replicative DNA helicase DnaB (Mycobacterium tuberculosis, UniProt P9WMR3); experiment: DnaB intein splicing inhibitors, dose response, biochemical, cell-free fluorescence (AID 449749); type: functional
# T6 sequence (P9WMR3 whole entry): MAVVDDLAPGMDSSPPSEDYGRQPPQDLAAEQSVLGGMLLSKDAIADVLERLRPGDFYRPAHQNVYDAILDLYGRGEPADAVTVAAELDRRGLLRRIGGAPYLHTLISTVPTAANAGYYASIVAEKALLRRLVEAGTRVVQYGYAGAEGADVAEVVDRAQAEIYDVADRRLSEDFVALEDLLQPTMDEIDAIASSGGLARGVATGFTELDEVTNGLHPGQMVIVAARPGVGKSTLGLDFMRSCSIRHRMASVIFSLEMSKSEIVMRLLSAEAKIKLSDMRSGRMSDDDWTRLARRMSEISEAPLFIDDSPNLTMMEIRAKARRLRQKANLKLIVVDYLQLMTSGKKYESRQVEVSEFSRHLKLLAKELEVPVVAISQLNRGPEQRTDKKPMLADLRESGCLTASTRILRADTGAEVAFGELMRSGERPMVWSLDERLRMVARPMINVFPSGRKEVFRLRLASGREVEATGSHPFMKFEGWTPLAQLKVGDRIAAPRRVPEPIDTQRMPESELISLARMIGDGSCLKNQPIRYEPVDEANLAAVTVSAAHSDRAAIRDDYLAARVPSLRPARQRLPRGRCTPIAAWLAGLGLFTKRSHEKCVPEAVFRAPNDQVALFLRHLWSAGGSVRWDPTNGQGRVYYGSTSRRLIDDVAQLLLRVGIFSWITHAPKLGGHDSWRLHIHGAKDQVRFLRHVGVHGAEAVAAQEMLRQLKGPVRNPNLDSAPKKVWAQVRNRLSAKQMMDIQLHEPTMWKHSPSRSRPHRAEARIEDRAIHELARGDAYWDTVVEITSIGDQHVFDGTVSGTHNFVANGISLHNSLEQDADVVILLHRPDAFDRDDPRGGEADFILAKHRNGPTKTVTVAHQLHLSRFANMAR
# [15] = molecular target: T7, Protein RecA (Mycobacterium tuberculosis, UniProt P9WHJ3); experiment: Fluorescence Cell-Free Homogeneous Dose Retest to Identify Inhibitors of RecA-Intein Splicing Activity. [Related pubchem assays (depositor defined):AID2097, AID2223, AID489010, AID492950]; type: functional
# T7 sequence (P9WHJ3 whole entry): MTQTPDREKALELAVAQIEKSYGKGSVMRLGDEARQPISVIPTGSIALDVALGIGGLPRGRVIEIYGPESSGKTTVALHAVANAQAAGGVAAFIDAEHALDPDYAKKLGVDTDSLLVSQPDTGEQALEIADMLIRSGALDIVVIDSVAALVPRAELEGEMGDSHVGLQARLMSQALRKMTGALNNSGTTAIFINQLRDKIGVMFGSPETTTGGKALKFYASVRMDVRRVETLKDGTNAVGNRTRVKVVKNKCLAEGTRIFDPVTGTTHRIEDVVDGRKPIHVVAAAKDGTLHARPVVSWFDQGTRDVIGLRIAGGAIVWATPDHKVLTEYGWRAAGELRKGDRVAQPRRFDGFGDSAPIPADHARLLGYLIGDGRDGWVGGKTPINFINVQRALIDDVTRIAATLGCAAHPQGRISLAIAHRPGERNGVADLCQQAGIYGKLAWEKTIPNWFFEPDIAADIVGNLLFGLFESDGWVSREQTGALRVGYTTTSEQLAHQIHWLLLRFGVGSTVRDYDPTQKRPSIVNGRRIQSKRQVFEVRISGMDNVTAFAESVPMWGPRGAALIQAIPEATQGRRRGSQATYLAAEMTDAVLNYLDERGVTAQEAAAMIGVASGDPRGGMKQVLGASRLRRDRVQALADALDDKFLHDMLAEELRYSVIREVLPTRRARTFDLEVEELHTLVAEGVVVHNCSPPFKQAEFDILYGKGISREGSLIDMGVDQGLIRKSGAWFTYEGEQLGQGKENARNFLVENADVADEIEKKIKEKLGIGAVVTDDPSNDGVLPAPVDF
# [16] = molecular target: T5, Fatty acid synthase; experiment: FAS thioesterase domain inhibitors, dose response, biochemical, endpoint fluorescence intensity, uHTS hits (AID 624327); type: functional;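 also: fluorescence from hydrolysis of an O-methyl fluorescein acyl ester substrate by the enzyme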
# [17] = molecular target: T8, Heat shock factor protein 1 (Mus musculus, UniProt P38532); experiment: HSF1 potentiators in luciferase reporter cells, confirmation, cell-based, NIH3T3, luminescence, dose retest (AID 435004); type: functional;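 also: stress induced by proteasome inhibitor MG132 added 30 min after compound; luciferase reporter driven by HSF1 response element in NIH3T3 cells; actives raise luminescence as potentiators of the MG132 stress response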
# T8 sequence (P38532 whole entry): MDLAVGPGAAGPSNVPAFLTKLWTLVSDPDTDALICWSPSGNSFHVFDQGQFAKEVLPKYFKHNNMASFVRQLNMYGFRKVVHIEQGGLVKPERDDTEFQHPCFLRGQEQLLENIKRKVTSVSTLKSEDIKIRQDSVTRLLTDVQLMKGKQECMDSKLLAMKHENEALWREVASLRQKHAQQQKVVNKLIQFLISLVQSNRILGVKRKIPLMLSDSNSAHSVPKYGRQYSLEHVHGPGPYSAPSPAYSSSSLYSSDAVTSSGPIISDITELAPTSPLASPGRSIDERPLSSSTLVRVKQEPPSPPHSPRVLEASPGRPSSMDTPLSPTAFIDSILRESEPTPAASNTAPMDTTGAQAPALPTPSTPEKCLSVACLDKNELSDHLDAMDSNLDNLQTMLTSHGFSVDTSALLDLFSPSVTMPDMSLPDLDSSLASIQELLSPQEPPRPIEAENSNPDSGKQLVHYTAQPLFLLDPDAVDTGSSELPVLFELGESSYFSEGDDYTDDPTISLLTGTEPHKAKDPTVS
smiles,measurement,setting,value
Cc1cc(C)nc(N=C(N)Nc2ccc(OCc3ccccc3)cc2)n1,IC50,[1],0.988 µM (active)
same,IC50,[2],1.22 µM (active)
O=[N+]([O-])c1ccc(-c2nc3cc([N+](=O)[O-])ccc3[nH]2)cc1,IC50,[3],27.4 µM (active)
same,IC50,[4],24.8 µM (active)
same,EC50,[5],12 µM (active)
same,CC50,[6],29.4 µM (active)
same,CC50,[7],19.9 µM (active)
same,EC50,[8],13.2 µM (active)
same,IC50,[9],27.2 µM (active)
same,AC50,[10],3.9 µM (active)
same,IC50,[11],17 µM (active)
CC(CCc1ccccc1)NC(=O)COC(=O)c1cc(NS(=O)(=O)c2ccc(Cl)c([N+](=O)[O-])c2)ccc1O (stereo not given),CC50,[12],32.9 µM (active)
same,IC50,[13],6.97 µM (active)
same,AC50,[14],3.63 µM (active)
same,EC50,[15],2.95 µM (active)
same,IC50,[16],11.1 µM (active)
Cc1[nH]n(-c2ccccc2)c(=O)c1C(C[N+](=O)[O-])c1ccc(F)cc1 (stereo not given),CC50,[12],> 40 µM (active)
same,EC50,[17],> 260 µM (inactive)
same,AC50,[14],0.729 µM (active)
same,EC50,[15],4.2 µM (active)
